One assay deals with PDE5 (human recombinant) (Homo sapiens, UniProt O76074). In words: Inhibition of PDE5 activity: Radioactive Scintillation Proximity Assay (SPA). Type of assay: biochemical. Particulars: read-out: PDE5 mean pIC50 (converted). From the text: Human recombinant PDE5 is disclosed in K. Loughney et al., “Isolation and characterisation of cDNAs encoding PDE5A, a human cGMP-binding, cGMP-specific 3′,5′-cyclic nucleotide phosphodiesterase”, Gene, 1998, 216, 139-147.
(§1) 2. Inhibition of PDE3, PDE4B, PDE4D, PDE5 or PDE6 Activity: Radioactive Scintillation Proximity Assay (SPA)
(§2) The ability of compounds to inhibit catalytic activity at PDE4B or 4D (human recombinant), PDE3 (from bovine aorta), PDE5 (human recombinant) or PDE 6 (from bovine retina) was determined by Scintillation Proximity Assay (SPA) in 96-well format. Test compounds (preferably as a solution in DMSO, e.g. 2 microlitre (μl) volume) were preincubated at ambient temperature in Wallac Isoplates (code 1450-514) with PDE enzyme in 50 mM Tris-HCl buffer pH 7.5, 8.3 mM MgCl2, 1.7 mM EGTA, 0.05% (w/v) bovine serum albumin for 10-30 minutes. The enzyme concentration was adjusted so that no more than 20% hydrolysis of the substrate occurred in control wells without compound, during the incubation. For the PDE3, PDE4B and PDE4D assays [5′,8-^3H]adenosine 3′,5′-cyclic phosphate (Amersham Pharmacia Biotech, code TRK.559 or Amersham Biosciences UK Ltd, Pollards Wood, Chalfont St Giles, Buckinghamshire HP8 4SP, UK) was added to give 0.05 μCi per well and ˜10 nM final concentration. For the PDE5 and PDE6 assays [8-^3H]guanosine 3′,5′-cyclic phosphate (Amersham Pharmacia Biotech , code TRK.392) was added to give 0.05 μCi per well and ˜36 nM final concentration. Plates e.g. containing approx. 100 μl volume of assay mixture were mixed on an orbital shaker for 5 minutes and incubated at ambient temperature for 1 hour. Phosphodiesterase SPA beads (Amersham Pharmacia Biotech, code RPNQ 0150) suspended in buffer were added (˜1 mg per well) to terminate the assay. Plates were sealed and shaken and allowed to stand at ambient temperature for 35 minutes to 1 hour to allow the beads to settle. Bound radioactive product was measured using a WALLAC TRILUX 1450 Microbeta scintillation counter. […] Curves were analysed using
(§3) ActivityBase and XLfit (ID Business Solutions Limited, 2 Ocean Court, Surrey Research Park, Guildford, Surrey GU2 7QB, United Kingdom). Results were expressed as pIC50 values.
A general note: Scintillation proximity formats need no separation of bound from free tracer.

Assay [1] concerns the target T1, PDE4B (human recombinant) (Homo sapiens, UniProt Q07343).
T1 construct: made in house
As to the kind of experiment: Inhibition of PDE4B activity: Radioactive Scintillation Proximity Assay (SPA). Type of assay: biochemical. The conditions noted are these: SPA or FP format not given; for IC50: read-out: PDE4B mean pIC50 (converted).
Text: Human recombinant PDE4B, in particular the 2B splice variant thereof (HSPDE4B2B), is disclosed in WO 94/20079 and also in M. M. McLaughlin et al., “A low Km, rolipram-sensitive, cAMP-specific phosphodiesterase from human brain: cloning and expression of cDNA, biochemical characterisation of recombinant protein, and tissue distribution of mRNA”, J. Biol. Chem., 1993, 268, 6470-6476. For example, in Example 1 of WO 94/20079, human recombinant PDE4B is described as being expressed in the PDE-deficient yeast Saccharomyces cerevisiae strain GL62, e.g. after induction by addition of 150 μM CuSO4, and 100,000×g supernatant fractions of yeast cell lysates are described for use in the harvesting of PDE4B enzyme.
as §1, §2, §3

Structures can show the parent of a compound that is named as a salt. Where only a bound is given, the exact number is not on record here.

T1 sequence (Q07343 1-564 isoform Q07343-2): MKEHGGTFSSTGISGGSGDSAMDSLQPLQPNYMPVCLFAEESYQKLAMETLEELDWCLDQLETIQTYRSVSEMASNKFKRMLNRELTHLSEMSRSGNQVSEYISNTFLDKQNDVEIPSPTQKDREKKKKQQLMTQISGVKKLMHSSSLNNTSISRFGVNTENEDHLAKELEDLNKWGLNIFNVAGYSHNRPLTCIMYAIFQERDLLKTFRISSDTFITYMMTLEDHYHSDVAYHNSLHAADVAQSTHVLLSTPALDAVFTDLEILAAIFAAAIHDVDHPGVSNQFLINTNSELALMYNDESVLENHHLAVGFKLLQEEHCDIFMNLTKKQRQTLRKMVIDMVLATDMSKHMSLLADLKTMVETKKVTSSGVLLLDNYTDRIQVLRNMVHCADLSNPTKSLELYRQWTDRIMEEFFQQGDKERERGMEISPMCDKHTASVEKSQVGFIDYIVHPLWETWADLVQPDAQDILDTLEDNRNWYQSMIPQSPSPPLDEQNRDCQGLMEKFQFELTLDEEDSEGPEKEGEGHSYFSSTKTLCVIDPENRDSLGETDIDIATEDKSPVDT

For `COc1cccc(Nc2c(C(N)=O)cnc3ccc(S(C)(=O)=O)cc23)c1` [Example 27, 4-{[3-(methyloxy)phenyl]amino}-6-(methylsulfonyl)-3-quinolinecarboxamide], the IC50 on PDE5 (human recombinant) was 15800 nM. In the case of `Cc1cccc(Nc2c(C(N)=O)cnc3c(Cl)cc(S(C)(=O)=O)cc23)c1` [Example 369, 8-chloro-4-[(3-methylphenyl)amino]-6-(methylsulfonyl)-3-quinolinecarboxamide], the IC50 in assay [1] is 0.316 nM; at PDE5 (human recombinant), 7940 nM. With `CN(C)c1cccc(Nc2c(C(N)=O)cnc3ccc(S(=O)(=O)C4CCCC4)cc23)c1` [Example 92], the IC50 in assay [1] is 20 nM; at PDE5 (human recombinant), greater than 31600 nM. As for `COc1cccc(Nc2c(C(N)=O)cnc3ccc(S(=O)(=O)c4cccc(C(=O)N(C)C)c4)cc23)c1` [Example 400, 6-({3-[(dimethylamino)carbonyl]phenyl}sulfonyl)-4-{[3-(methyloxy)phenyl]amino}-3-quinolinecarboxamide], the figures for the IC50 (in assay [1]; on PDE5 (human recombinant)) were 0.01 nM and greater than 10000 nM, respectively.

Regarding `Cc1cc(S(C)(=O)=O)cc2c(Nc3cccc4c3CCO4)c(C(N)=O)cnc12` [Example 307, 4-(2,3-dihydro-1-benzofuran-4-ylamino)-8-methyl-6-(methylsulfonyl)-3-quinolinecarboxamide], the IC50 is 0.0316 nM in assay [1] and greater than 25100 nM on PDE5 (human recombinant). `Cc1cc(S(C)(=O)=O)cc2c(Nc3ccc4cnn(C)c4c3)c(C(N)=O)cnc12` [Example 309, 8-methyl-4-[(1-methyl-1H-indazol-6-yl)amino]-6-(methylsulfonyl)-3-quinolinecarboxamide]: the IC50 in assay [1] is 0.0794 nM; on PDE5 (human recombinant), greater than 12600 nM. Regarding `Cc1cc(S(=O)(=O)c2cccc(C(=O)N(C)C)c2)cc2c(Nc3cccc(C#N)c3)c(C(N)=O)cnc12` [Example 408, 4-[(3-cyanophenyl)amino]-6-({3-[(dimethylamino)carbonyl]phenyl}sulfonyl)-8-methyl-3-quinolinecarboxamide], in assay [1], the IC50 is 0.00398 nM. With `COc1cccc(Nc2c(C(N)=O)cnc3c(C)cc(S(=O)(=O)c4cccc(C(=O)N(C)C)c4)cc23)c1` [Example 399, 6-({3-[(dimethylamino)carbonyl]phenyl}sulfonyl)-8-methyl-4-{[3-(methyloxy)phenyl]amino}-3-quinolinecarboxamide], the IC50 in assay [1] is less than 0.00251 nM; at PDE5 (human recombinant), 2510 nM. `Cc1cc(S(C)(=O)=O)cc2c(Nc3cc(F)cc(F)c3)c(C(N)=O)cnc12` [Example 502, 4-[(3,5-difluorophenyl)amino]-8-methyl-6-(methylsulfonyl)-3-quinolinecarboxamide]: the IC50 is 1.26 nM in assay [1] and greater than 10000 nM at PDE5 (human recombinant). As to `COc1cccc(Nc2c(C(N)=O)cnc3c(C)cc(S(=O)(=O)c4ccc(OC)c(OC)c4)cc23)c1` [Example 380, 6-{[3,4-bis(methyloxy)phenyl]sulfonyl}-8-methyl-4-{[3-(methyloxy)phenyl]amino}-3-quinolinecarboxamide], the values for the IC50 (in assay [1]; at PDE5 (human recombinant)) were 0.00398 nM and greater than 100 nM, respectively. On to `Cc1cc(S(C)(=O)=O)cc2c(Nc3cccc(C#N)c3)c(C(N)=O)cnc12` [Example 312, 4-[(3-cyanophenyl)amino]-8-methyl-6-(methylsulfonyl)-3-quinolinecarboxamide], for which the “PDE4B mean pIC50” value in assay [1] turned out to be 9.4. In addition, the IC50 at PDE5 (human recombinant) is greater than 31600 nM. In the case of `COc1ccc(S(=O)(=O)c2cc(C)c3ncc(C(N)=O)c(Nc4cccc(OC)c4)c3c2)cc1` [Example 265, 8-methyl-4-{[3-(methyloxy)phenyl]amino}-6-{[4-(methyloxy)phenyl]sulfonyl}-3-quinolinecarboxamide], the values for the IC50 (in assay [1]; at PDE5 (human recombinant)) were 0.00501 nM and 6310 nM, respectively. On to `COc1cccc(Nc2c(C(N)=O)cnc3c(C)cc(S(=O)(=O)c4cncc(C(=O)N(C)C)c4)cc23)c1` [Example 546, 6-({5-[(dimethylamino)carbonyl]-3-pyridinyl}sulfonyl)-8-methyl-4-{[3-(methyloxy)phenyl]amino}3-quinolinecarboxamide hydrochloride], for which the IC50 is 0.02 nM in assay [1] and 20000 nM at PDE5 (human recombinant). Regarding `Cc1cc(S(=O)(=O)CCNS(C)(=O)=O)cc2c(Nc3cccc4c3CCO4)c(C(N)=O)cnc12` [Example 457, 4-(2,3-dihydro-1-benzofuran-4-ylamino)-8-methyl-6-({2-[(methylsulfonyl)amino]ethyl}sulfonyl)-3-quinolinecarboxamide], the IC50 in assay [1] is 0.01 nM; on PDE5 (human recombinant), greater than 3160 nM. On to `Cc1cc(S(=O)(=O)C2CCN(C(=O)c3ccco3)CC2)cc2c(Nc3cccc4c3CCO4)c(C(N)=O)cnc12` [Example 446, 4-(2,3-dihydro-1-benzofuran-4-ylamino)-6-{[1-(2-furanylcarbonyl)-4-piperidinyl]sulfonyl}-8-methyl-3-quinolinecarboxamide], for which the IC50 in assay [1] is 0.00501 nM; on PDE5 (human recombinant), greater than 31600 nM.

Source of the values: US7566786B2, “Quinoline derivatives as phosphodiesterase inhibitors” (Glaxo Group Limited, priority 2003, dated 2009).
